Drawing on patent US9061966B2, “Cyclopropylamine inhibitors of oxidases” (ORYZON GENOMICS S.A., priority 2010, dated 2015), this text covers Ki for 14 compounds.

What all share (assay type): biochemical
In experiment [1] the target is T1, Human recombinant monoamine oxidase MAO-A (Homo sapiens, UniProt P21397).
T1 construct: purchased Sigma Aldrich
T1 sequence (P21397 1-527): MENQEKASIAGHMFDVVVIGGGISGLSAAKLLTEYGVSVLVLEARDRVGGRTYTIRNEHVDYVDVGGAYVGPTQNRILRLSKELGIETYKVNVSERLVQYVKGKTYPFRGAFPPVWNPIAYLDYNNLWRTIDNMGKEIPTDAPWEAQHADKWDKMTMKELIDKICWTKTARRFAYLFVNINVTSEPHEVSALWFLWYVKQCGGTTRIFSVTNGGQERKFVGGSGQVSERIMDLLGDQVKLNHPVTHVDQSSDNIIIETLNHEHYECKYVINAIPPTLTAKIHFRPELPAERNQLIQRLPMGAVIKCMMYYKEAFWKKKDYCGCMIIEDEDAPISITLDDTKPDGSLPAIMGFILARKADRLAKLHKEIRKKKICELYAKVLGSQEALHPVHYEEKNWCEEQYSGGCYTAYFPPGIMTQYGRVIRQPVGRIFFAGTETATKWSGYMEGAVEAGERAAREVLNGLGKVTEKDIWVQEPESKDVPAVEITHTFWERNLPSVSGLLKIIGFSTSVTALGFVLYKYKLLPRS
The experiment in a line: Monoamine oxidase assay, kynuramine fluorescence, MAO-A. The note with it: Ki (IC50) determined at Vmax/2; range class. The text has this: (§1) Human recombinant monoamine oxidase proteins MAO-A and MAO-B were purchased from Sigma Aldrich. MAOs catalyze the oxidative deamination of primary, secondary and tertiary amines. In order to monitor MAO enzymatic activities and/or their inhibition rate by inhibitor(s) of interest, a fluorescence-based (inhibitor)-screening assay was set up. 3-(2-Aminophenyl)-3-oxopropanamine (kynuramine dihydrobromide, Sigma Aldrich), a non fluorescent compound was chosen as a substrate. Kynuramine is a non-specific substrate for both MAO-A and MAO-B activities. While undergoing oxidative deamination by MAO activities, kynuramine is converted into 4-hydroxyquinoline (4-HQ), a resulting fluorescent product.
(§2) The monoamine oxidase activity was estimated by measuring the conversion of kynuramine into 4-hydroxyquinoline. Assays were conducted in 96-well black plates with clear bottom (Corning) in a final volume of 100 μL. The assay buffer was 100 mM HEPES, pH 7.5. Each experiment was performed in triplicate within the same experiment.
(§3) Briefly, a fixed amount of MAO (0.25 μg for MAO-A and 0.5 μg for MAO-B) was incubated on ice for 15 minutes in the reaction buffer, in the absence and/or in the presence of various concentrations of inhibitor (e.g., from 0 to 50 μM, depending on the inhibitor strength). Tranylcypromine (Biomol International) was used as a control for inhibition.
(§4) After leaving the enzyme(s) interacting with the inhibitor, 60 to 90 μM of kynuramine was added to each reaction for MAO-B and MAO-A assay respectively, and the reaction was left for 1 hour at 37° C. in the dark. The oxidative deamination of the substrate was stopped by adding 50 μL (v/v) of NaOH 2N. The conversion of kynuramine to 4-hydroxyquinoline, was monitored by fluorescence (excitation at 320 nm, emission at 360 nm) using a microplate reader (Infinite 200, Tecan). Arbitrary units were used to measure levels of fluorescence produced in the absence and/or in the presence of inhibitor.
(§5) The maximum of oxidative deamination activity was obtained by measuring the amount of 4-hydroxyquinoline formed from kynuramine deamination in the absence of inhibitor and corrected for background fluorescence in the absence of MAO enzymes. The Ki (IC50) of each inhibitor was determined at Vmax/2.

Experiment [2] deals with T2, Human recombinant monoamine oxidase MAO-B (Homo sapiens, UniProt P27338).
T2 construct: purchased Sigma Aldrich
T2 sequence (P27338 1-520): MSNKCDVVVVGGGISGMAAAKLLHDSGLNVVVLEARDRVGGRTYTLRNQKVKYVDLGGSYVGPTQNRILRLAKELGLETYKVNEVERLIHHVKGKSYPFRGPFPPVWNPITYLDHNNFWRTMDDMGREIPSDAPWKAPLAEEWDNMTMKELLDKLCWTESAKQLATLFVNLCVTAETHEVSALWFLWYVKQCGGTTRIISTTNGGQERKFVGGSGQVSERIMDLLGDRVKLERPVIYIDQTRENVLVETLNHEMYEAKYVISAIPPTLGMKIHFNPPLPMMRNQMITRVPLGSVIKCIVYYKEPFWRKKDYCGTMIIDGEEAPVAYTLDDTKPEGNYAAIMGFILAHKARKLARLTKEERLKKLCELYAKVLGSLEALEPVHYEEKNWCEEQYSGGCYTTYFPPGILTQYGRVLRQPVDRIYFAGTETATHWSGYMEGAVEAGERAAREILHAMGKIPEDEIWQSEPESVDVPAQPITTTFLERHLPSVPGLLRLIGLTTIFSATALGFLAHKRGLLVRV
Briefly: Monoamine oxidase assay, kynuramine fluorescence, MAO-B. The note with it: Ki (IC50) determined at Vmax/2; range class.
Text: as §1, §2, §3, §4, §5

The target of experiment [3] is T3, Human recombinant LSD1 protein (Homo sapiens, UniProt O60341).
T3 construct: purchased BPS Bioscience Inc
The experiment in a line: Inhibition of LSD1 (Amplex Red peroxide/peroxidase-coupled demethylase assay, di-methylated H3-K4 peptide substrate). The note with it: Ki (IC50) estimated at half of the maximum activity; range class. The source says:
The compounds of the invention can be tested for their ability to inhibit LSD1. The ability of the compounds of the invention to inhibit LSD1 can be tested as follows. Human recombinant LSD1 protein was purchased from BPS Bioscience Inc. In order to monitor LSD1 enzymatic activity and/or its inhibition rate by our inhibitor(s) of interest, di-methylated H3-K4 peptide (Millipore) was chosen as a substrate. The demethylase activity was estimated, under aerobic conditions, by measuring the release of H2O2 produced during the catalytic process, using the Amplex® Red peroxide/peroxidase-coupled assay kit (Invitrogen).
Briefly, a fixed amount of LSD1 was incubated on ice for 15 minutes, in the absence and/or in the presence of various concentrations of inhibitor (e.g., from 0 to 75 μM, depending on the inhibitor strength). Tranylcypromine (Biomol International) was used as a control for inhibition. Within the experiment, each concentration of inhibitor was tested in triplicate. After leaving the enzyme interacting with the inhibitor, 12.5 μM of di-methylated H3-K4 peptide was added to each reaction and the experiment was left for 1 hour at 37° C. in the dark. The enzymatic reactions were set up in a 50 mM sodium phosphate, pH 7.4 buffer. At the end of the incubation, Amplex® Red reagent and horseradish peroxidase (HPR) solution were added to the reaction according to the recommendations provided by the supplier (Invitrogen), and left to incubate for 30 extra minutes at room temperature in the dark. A 1 μM H2O2 solution was used as a control of the kit efficiency. The conversion of the Amplex® Red reagent to resorufin due to the presence of H2O2 in the assay, was monitored by fluorescence (excitation at 540 nm, emission at 590 nm) using a microplate reader (Infinite 200, Tecan). Arbitrary units were used to measure level of H2O2 produced in the absence and/or in the presence of inhibitor.
The maximum demethylase activity of LSD1 was obtained in the absence of inhibitor and corrected for background fluorescence in the absence of LSD1. The Ki (IC50) of each inhibitor was estimated at half of the maximum activity.

The term Ki denotes the dissociation constant of the complex between target and ligand, obtained from inhibition or displacement.

Structures can show the parent of a compound that is named as a salt.

Take `N[C@H]1C[C@@H]1c1ccc(Nc2cccc(Cl)c2)nc1` (racemic) [Example 1, 5-((trans)-2-aminocyclopropyl)-N-(3-chlorophenyl)pyridin-2-amine hydrochloride]: the values for the Ki in experiment [1], in experiment [2] and in experiment [3] were 1000 to 40000 nM, 1 to 100 nM and 100 to 1000 nM, respectively.
As for `N[C@H]1C[C@@H]1c1ccc(Nc2ccc(Cl)cc2)nc1` (racemic) [Example 2, 5-((trans)-2-aminocyclopropyl)-N-(4-chlorophenyl)pyridin-2-amine hydrochloride], the Ki is 1000 to 40000 nM in experiment [1], 1 to 100 nM in experiment [2] and 100 to 1000 nM in experiment [3].
The like results for `N[C@H]1C[C@@H]1c1ccc(Nc2ccc(C(F)(F)F)cc2)nc1` (racemic) [Example 3, 5-((trans)-2-aminocyclopropyl)-N-(4-(trifluoromethyl)phenyl)pyridin-2-amine hydrochloride] were, in that order, 1000 to 40000 nM, 100 to 1000 nM and 100 to 1000 nM.
The like results for `COc1cccc(Nc2ccc([C@H]3C[C@@H]3N)cn2)c1` (racemic) [Example 4, 5-((trans)-2-aminocyclopropyl)-N-(3-methoxyphenyl)pyridin-2-amine hydrochloride] were, in that order, 1000 to 40000 nM, 1000 to 40000 nM and 100 to 1000 nM.
As for `COc1ccc(Nc2ccc([C@H]3C[C@@H]3N)cn2)cc1` (racemic) [Example 5, 5-((trans)-2-aminocyclopropyl)-N-(4-methoxyphenyl)pyridin-2-amine hydrochloride], the Ki was 1000 to 40000 nM in experiment [1], 100 to 1000 nM in experiment [2] and 100 to 1000 nM in experiment [3].
With `Cc1ccc(Nc2ccc([C@H]3C[C@@H]3N)cn2)cc1` (racemic) [Example 6, 5-((trans)-2-aminocyclopropyl)-N-p-tolylpyridin-2-amine hydrochloride], the Ki in experiment [1] was 1000 to 40000 nM; in experiment [2], 1000 to 40000 nM; in experiment [3], 100 to 1000 nM.
With `Cc1cccc(Nc2ccc([C@H]3C[C@@H]3N)cn2)c1` (racemic) [Example 7, 5-((trans)-2-aminocyclopropyl)-N-m-tolylpyridin-2-amine hydrochloride], the Ki in experiment [1] was 1000 to 40000 nM; in experiment [2] it was 100 to 1000 nM; in experiment [3], 100 to 1000 nM.
Turning to `N#Cc1cccc(Nc2ccc([C@H]3C[C@@H]3N)cn2)c1` (racemic) [Example 9, 3-(5-((trans)-2-aminocyclopropyl)pyridin-2-ylamino)benzonitrile hydrochloride], the Ki in experiment [1] is 1000 to 40000 nM; in experiment [2], 100 to 1000 nM; in experiment [3] it was 100 to 1000 nM.
On to `NC(=O)c1cccc(Nc2ccc([C@H]3C[C@@H]3N)cn2)c1` (racemic) [Example 10, 3-(5-((trans)-2-aminocyclopropyl)pyridin-2-ylamino)benzamide hydrochloride], for which the Ki in experiment [1] is 1000 to 40000 nM; in experiment [2], 1000 to 40000 nM; in experiment [3], 100 to 1000 nM.
In the case of `N[C@H]1C[C@@H]1c1ccc(NCc2cccc(Cl)c2)nc1` (racemic) [Example 12, 5-((trans)-2-aminocyclopropyl)-N-(3-chlorobenzyl)pyridin-2-amine hydrochloride], the values for the Ki in experiment [1], in experiment [2] and in experiment [3] were 1000 to 40000 nM, 1000 to 40000 nM and 100 to 1000 nM, respectively.
In the case of `N[C@H]1C[C@@H]1c1ccc(NCc2ccc(C(F)(F)F)cc2)nc1` (racemic) [Example 15, 5-((trans)-2-aminocyclopropyl)-N-(4-(trifluoromethyl)benzyl)pyridin-2-amine hydrochloride], the figures for the Ki in experiment [1], in experiment [2] and in experiment [3] were 1000 to 40000 nM, 1000 to 40000 nM and 100 to 1000 nM, respectively.
Consider `Cc1cccc(CNc2ccc([C@H]3C[C@@H]3N)cn2)c1` (racemic) [Example 16, 5-((trans)-2-aminocyclopropyl)-N-(3-methylbenzyl)pyridin-2-amine hydrochloride], for which the Ki is 1000 to 40000 nM in experiment [1], 1000 to 40000 nM in experiment [2] and 100 to 1000 nM in experiment [3].
With `Cc1ccc(CNc2ccc([C@H]3C[C@@H]3N)cn2)cc1` (racemic) [Example 17, 5-((trans)-2-aminocyclopropyl)-N-(4-methylbenzyl)pyridin-2-amine hydrochloride], the Ki is 1000 to 40000 nM in experiment [1], 1000 to 40000 nM in experiment [2] and 100 to 1000 nM in experiment [3].
`N#Cc1cccc(CNc2ccc([C@H]3C[C@@H]3N)cn2)c1` (racemic) [Example 18, 3-((5-((trans)-2-aminocyclopropyl)pyridin-2-ylamino)methyl)benzonitrile hydrochloride]: the Ki was 1000 to 40000 nM in experiment [1], 1000 to 40000 nM in experiment [2] and 100 to 1000 nM in experiment [3].
